In paper PMC7190722, “Brain distribution of geissoschizine methyl ether in rats using mass spectrometry imaging analysis” (Scientific Reports, 2020):
Several values for one entry are separate records, joined by “and”; a condition that tells them apart may be missing. Identical values can stand only once.

What was measured:
[1] = Brain distribution by DESI-MSI analysis after intravenous GM injection; assay type: in vivo, rat; conditions: for concentration at 0.25 h: rat, intravenous, 5 mg/kg
Method: GM (5 mg/kg) or vehicle (70% DMSO; 0.6 mL/kg) was injected into the tail vein of rats fasted for approximately 16 h. […] Blood samples were centrifuged at 1,700 × g and 4 °C for 15 min to obtain the plasma. The brain of each animal was immediately removed and weighed after blood collection and frozen with liquid nitrogen. The frozen brains were used for making serial sagittal thin sliced sections (thickness 25 μm, coordinate: approximately 3.4 mm lateral from the bregma) using a […][…] cryostat (Leica Microsystems, […], Germany). Some of the serial sections mounted on conventional glass slides were used for H&E staining to confirm the location of the brain region in the slice. In MALDI-MSI analysis, some sections were mounted on indium tin oxide-coated slides ([…]., Osaka, Japan) based on previous reports[35],[36] to obtain higher sensitivity. In […] analysis, some sections were mounted on conventional glass slides. These tissue sections mounted on the slides were dried in a desiccator at room temperature for 10 min for MALDI-MSI analysis or 1 h for […] analysis. In the […] analysis, the MS/MS analysis was further performed to identify the signals of GM or its hydroxylated metabolite. The MS and MS/MS analyses for […] were performed using a Xevo G2-XS Q-Tof system (Waters, Milford, MA, USA) with an Omni Spray Ion Source 2-D (Prosolia, Indianapolis, IN, USA). In both analyses, methanol/water (98:2)solution was flowed into a capillary at a 2 μL/min flow rate. The nebulizing gas pressure was set to 0.4 MPa, the capillary voltage to 5 kV, the source temperature to 100 °C, the sampling cone to 30 V, and the scan time to 0.986 sec. In the MS analysis, the collision energy was set to 4 eV, and mass spectra were acquired in target enhancement mode, which was set to m/z 367.2. In the MS/MS analysis, the collision energy was set to 20 eV, and mass spectra were acquired in target enhancement mode, which was set to m/z 144.2. Mass resolution and spatial resolution were >20,000 and 200 μm in the MS and MS/MS analyses. The protonated ions of GM ([M + H]^+: m/z 367.2) and HM ([M + H]^+: m/z 383.2) in MS and the specific fragment ions of GM (m/z 144.2) and HM (m/z 160.2) in MS/MS were detected in positive ion mode. The intensities of GM and HM detected in the DESI-MS analysis were visualized using high-definition imaging (HDI) software (Waters, Milford, MA, USA). Normal intact brains were homogenized without adding a solvent using a T-10 basic Ultra-Turrax homogenizer (IKA, Staufen, Germany) to prepare a tissue-based calibration curve for quantifying GM. For brain homogenates, various concentrations of standard GM solution (final concentration: 6.25, 12.5, and 25.0 μg/g brain) or vehicle (methanol) as a control were added and rapidly frozen. Frozen sections (thickness 25 μm) of the homogenates spiked with standard GM were made using a […][…] cryostat (Leica Microsystems). Regional intensities of GM (m/z 367.2) and a standard endogenous molecule (m/z 366.95) in brain tissue slices and homogenate slices were evaluated by the region of interest analysis using HDI software (Waters). The GM signal intensity was expressed as the average of the relative intensity ratio to the standard endogenous molecule per […] contained in the region of interest. The regional brain concentration of GM was calculated using the tissue-based calibration curve (Fig. 3D-2).

normal rat brain slices = test system: normal rat brain slices; parameters: method as in PMID 25456433, PMID 28377723; conditions: [^3H]GM directly exposed to normal rat brain slices; cited from earlier work
[2] = parameters: method as in PMID 23813572, PMID 30741064; conditions: plasma and brain, after oral YKS administration to rats; cited from earlier work
[3] = Plasma concentrations of GM and HM-1/2 by LC-MS/MS after intravenous GM injection; assay type: in vivo, rat
Method: GM (5 mg/kg) or vehicle (70% DMSO; 0.6 mL/kg) was injected into the tail vein of rats fasted for approximately 16 h. […] Blood samples were centrifuged at 1,700 × g and 4 °C for 15 min to obtain the plasma. The brain of each animal was immediately removed and weighed after blood collection and frozen with liquid nitrogen. On the day of analysis, frozen plasma from GM-treated rats was thawed at room temperature, and 25 µL of the plasma was mixed with equal volumes of methanol and an IS vincamine (1 ng/mL) and 150 μL of ethyl acetate. To prepare the calibration curve, blank plasma and various concentrations of working solution (final plasma concentration: 0.08–2 µg/mL) were used instead of methanol and GM-treated plasma. The mixture was centrifuged at 7,000 × g and 4 °C for 5 min. The supernatant was dried under a stream of nitrogen gas. The dried residue was dissolved in 60 μL of the initial mobile phase of LC, and then, a 5-μL aliquot was injected into the LC-MS/MS system composed of an Agilent 1290 LC (Agilent Technologies, Santa Clara, CA, USA) and a TripleQuad6500 MS/MS (SCIEX, Framingham, MA, USA) for measuring GM and its hydroxylated forms. The analytical conditions for LC-MS/MS were set according to previously reported methods with minor modifications[10],[15]. The protonated ions ([M + H]^+) of GM (m/z 367.0), HM-1/2 isomers (m/z 383.3), and vincamine (m/z 355.3) in Q1 (the first MS) or their specific fragment ions (GM: m/z 144.1, HM-1/2 isomers: m/z 160.2, vincamine: m/z 337.1) in Q3 (the second MS) were selected and detected by SRM using positive ion mode. Although a qualifier ion was not monitored in their analysis, the specificities of GM, HM-1/2 and vincamine in rat plasma were already confirmed by previous studies[10],[14]. The calibration curve for quantification of plasma GM concentrations was prepared using Analyst software (version 1.6.2, AB SCIEX). The plasma concentrations of HM-1/2 were expressed as relative peak area ratios of vincamine (IS) because there are currently no standard products for measuring these compounds.

[4] = parameters: method as in PMID 21442303; conditions: cultured cells; cited from earlier work
[5] = Brain distribution by MALDI-MSI analysis after intravenous GM injection; assay type: in vivo, rat; conditions: 0.25 h after 5 mg/kg GM i.v., sagittal sections
Method: GM (5 mg/kg) or vehicle (70% DMSO; 0.6 mL/kg) was injected into the tail vein of rats fasted for approximately 16 h. […] Blood samples were centrifuged at 1,700 × g and 4 °C for 15 min to obtain the plasma. The brain of each animal was immediately removed and weighed after blood collection and frozen with liquid nitrogen.
The frozen brains were used for making serial sagittal thin sliced sections (thickness 25 μm, coordinate: approximately 3.4 mm lateral from the bregma) using a Leica CM3050S cryostat (Leica Microsystems, Wetzlar, Germany). Some of the serial sections mounted on conventional glass slides were used for H&E staining to confirm the location of the brain region in the slice. […]
The MALDI-MSI analysis was performed on brain slice specimens sprayed with a matrix solution (40 mg/mL 2,5-dihydroxybenzoic acid) dissolved in 50% methanol using a TM-sprayer (HTX Technologies, Chapel Hill, NC, USA). […] The targeted protonated molecule GM ([M + H]^+: m/z 367.2) was detected in positive ion mode under a laser power setting of 70%, 500 laser shots, and the continuous accumulation of selected ions mode set to ON at m/z 360 ± 50. […] GM intensity detected by the MALDI-MS analysis was visualized using FlexImaging software (Bruker Daltonics).

[6] = Amygdala, 0.25 h, individual animals
[7] = Cerebellum, 0.25 h, individual animals
[8] = Fourth ventricle, 0.25 h, individual animals
[9] = Frontal lobe, 0.25 h, individual animals
[10] = Hippocampus, 0.25 h, individual animals
[11] = Lateral ventricle, 0.25 h, individual animals
[12] = Occipital lobe, 0.25 h, individual animals
[13] = Striatum, 0.25 h, individual animals
[14] = Thalamus, 0.25 h, individual animals

In the case of `CC=C1CN2CCc3c([nH]c4ccccc34)C2CC1C(=COC)C(=O)OC` (stereo not shown) [GM, Geissoschizine methyl ether], the “GM ion signal in brain, DESI-MSI image” value ([1]; 0.25 h after 5 mg/kg GM i.v., sagittal sections) is reported as “a diffuse GM ion signal was observed throughout the brain parenchyma”, the “Calculated GM concentration” value [1, 6] is reported as 1.0 µg/g and 2.2 µg/g and 1.2 µg/g and the “Ion intensity of GM per pixel in ROI” value [1, 6] is reported as 2.4 ×10^4 and 3.7 ×10^4 and 9.7 ×10^4. The “Ratio of GM/endogenous standard molecule” value [1, 6] was 0.8 and 1.8 and 1.0, the “Calculated GM concentration” value [1, 7] was 0.8 µg/g and 2.0 µg/g and 1.1 µg/g and the “Ion intensity of GM per pixel in ROI” value [1, 7] was 4.2 ×10^4 and 2.4 ×10^4 and 8.7 ×10^4. The “Ratio of GM/endogenous standard molecule” value [1, 7] was 0.7 and 1.7 and 0.9, the “GM intensity in the parenchyma” value ([1]; DESI-MSI, 1 and 4 h after 5 mg/kg GM i.v.) was “almost disappeared” and the “intracerebroventricular GM intensity” value ([1]; DESI-MSI, 0.25 h, also detected at 1 and 4 h) was “higher than the intensity in other parenchymal areas”. The “Calculated GM concentration” value [1, 8] was 2.3 µg/g and 2.0 µg/g, the “Ion intensity of GM per pixel in ROI” value [1, 8] was 4.0 ×10^4 and 3.9 ×10^4 and 26.5 ×10^4 and the “Ratio of GM/endogenous standard molecule” value [1, 8] was 1.0 and 1.9 and 1.7. The “Calculated GM concentration” value [1, 9] was 1.0 µg/g and 2.6 µg/g and 1.2 µg/g, the “Ion intensity of GM per pixel in ROI” value [1, 9] was 2.9 ×10^4 and 5.4 ×10^4 and 9.1 ×10^4 and the “Ratio of GM/endogenous standard molecule” value [1, 9] was 0.8 and 2.2 and 1.0. The “Calculated GM concentration” value [1, 10] was 2.3 µg/g and 1.1 µg/g and 0.8 µg/g, the “Ion intensity of GM per pixel in ROI” value [1, 10] was 4.7 ×10^4 and 10 ×10^4 and 2.0 ×10^4 and the “Ratio of GM/endogenous standard molecule” value [1, 10] was 1.9 and 0.9 and 0.7. The “Calculated GM concentration” value [1, 11] was 1.4 µg/g and 4.5 µg/g and 2.9 µg/g, the “Ion intensity of GM per pixel in ROI” value [1, 11] was 3.0 ×10^4 and 8.3 ×10^4 and 21.2 ×10^4 and the “Ratio of GM/endogenous standard molecule” value [1, 11] was 1.2 and 3.8 and 2.4. The “Calculated GM concentration” value [1, 12] was 1.1 µg/g and 2.7 µg/g and 1.3 µg/g, the “Ion intensity of GM per pixel in ROI” value [1, 12] was 2.9 ×10^4 and 4.8 ×10^4 and 10.5 ×10^4 and the “Ratio of GM/endogenous standard molecule” value [1, 12] was 0.9 and 2.3 and 1.1. The “Calculated GM concentration” value [1, 13] was 0.8 µg/g and 2.6 µg/g and 1.1 µg/g, the “Ion intensity of GM per pixel in ROI” value [1, 13] was 1.9 ×10^4 and 3.9 ×10^4 and 7.2 ×10^4 and the “Ratio of GM/endogenous standard molecule” value [1, 13] was 0.7 and 2.2 and 0.9. For the same compound, the “Calculated GM concentration” value [1, 14] was 0.7 µg/g and 2.4 µg/g and 1.1 µg/g, the “Ion intensity of GM per pixel in ROI” value [1, 14] was 1.7 ×10^4 and 4.5 ×10^4 and 8.8 ×10^4 and the “Ratio of GM/endogenous standard molecule” value [1, 14] was 0.6 and 2.0 and 0.9. The concentration at 0.25 h ([1]; brain (fourth ventricle), Fourth ventricle, 0.25 h, individual animals, read-out: Calculated GM concentration) was 1200 ng/g, the concentration at 0.25 h ([1]; 0.25 h after 5 mg/kg GM i.v., cerebral cortex, hippocampus, striatum, amygdala, thalamus, cerebellum, lateral ventricle, read-out: regional brain GM concentration range) was 1300 to 2900 ng/g and the “binding to brain slices” value (normal rat brain slices) was “specifically bound to various regions appearing on the surface of brain slices”. The tmax [2] was 0.5 h, the “time course of plasma GM concentration” value ([3]; 0.25-4 h after 5 mg/kg GM i.v., rat) was “rapidly decreased in a time-dependent manner over 4 h” and the “plasma concentration relative to maximum concentration after oral YKS” value ([3]; 0.25 h after 5 mg/kg GM i.v. vs maximum concentration 1 h after oral 1 g/kg YKS) was “approximately 500 times”. The distribution volume ([3]; one-compartment analysis, 5 mg/kg GM i.v., rat) was 4.4 L/kg, the concentration at 0.25 h ([3]; plasma, iv, 0.25 h postinjection, 5 mg/kg GM i.v., rat) was 1070 ng/mL and the half-life ([3]; plasma, iv, one-compartment analysis, 5 mg/kg GM i.v., rat, read-out: apparent elimination half-life (converted)) was 1.8 h. The k el ([3]; plasma, iv, one-compartment analysis, 5 mg/kg GM i.v., rat, read-out: elimination rate constant (converted)) was 0.000111 s⁻¹, the clearance ([3]; plasma, iv, one-compartment analysis, 5 mg/kg GM i.v., rat, read-out: total clearance (converted)) was 28.3 mL/min/kg and the BBB permeability [4] was “comparatively high”. For the same compound, the “GM ion signal in brain, MALDI-MSI image” value [5] was “a diffuse GM ion signal was observed throughout the brain parenchyma”.
